{"source": "patent US20080234335A1", "about": "“Cyclohexene Compounds” (priority 2003, published 2008)", "origin": "cited, not measured here", "key": {"EP1 receptor [1]": {"target": "T1, EP1 receptor (Rattus norvegicus, UniProt P70597)", "T1 sequence (P70597 1-405)": "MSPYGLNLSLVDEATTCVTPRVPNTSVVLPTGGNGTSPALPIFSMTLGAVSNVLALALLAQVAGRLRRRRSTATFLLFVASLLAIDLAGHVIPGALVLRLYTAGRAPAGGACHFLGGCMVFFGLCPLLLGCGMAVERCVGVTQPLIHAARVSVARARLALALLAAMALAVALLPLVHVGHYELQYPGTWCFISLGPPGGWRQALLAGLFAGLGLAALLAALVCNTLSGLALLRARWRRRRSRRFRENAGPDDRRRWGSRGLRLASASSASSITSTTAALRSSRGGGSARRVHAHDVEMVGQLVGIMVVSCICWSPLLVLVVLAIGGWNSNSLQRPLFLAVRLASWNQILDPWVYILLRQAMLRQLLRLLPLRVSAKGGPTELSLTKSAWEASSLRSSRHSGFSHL", "set-up": "host or cells: live rodent (in vivo)", "conditions": "rodent model of post-operative pain"}, "EP1 receptor [2]": {"target": "T1, EP1 receptor", "set-up": "host or cells: live rat (in vivo)", "conditions": "rat model of chronic constriction injury"}}, "data": [{"smiles": "Cc1cc(Cl)ccc1S(=O)(=O)NC[C@H]1C2CCC(CC2)[C@@H]1/C=C\\CCCC(=O)O", "note": "[ONO-8711]", "values": [{"measurement": "effect on mechanical hyperalgesia", "setting": "EP1 receptor [1]", "result": "inhibits mechanical hyperalgesia"}, {"measurement": "effect on hyperalgesia and allodynia", "setting": "EP1 receptor [2]", "result": "reduces hyperalgesia and allodynia"}]}]}
